Some results are limits rather than exact numbers.

The subject of the assay is cholesterol absorption. Briefly: Cholesterol Absorption Assay in Rats. The format is in vivo. Conditions: CD male rats, oral, at the highest dose tested; [3H]-cholesterol counts in liver and plasma. As to the method: Compounds can be tested for cholesterol absorption activity in assays using, e.g., rats or mice, and are preferably tested in the rat assay described herein. Representative compounds of this invention were determined to inhibit cholesterol absorption employing the Cholesterol Absorption Assay in Rats, below. This assay involves comparing a test compound to ezetimibe with respect to their ability to inhibit cholesterol absorption in rats.
Cholesterol Absorption Assay in Rats: CD male rats (n=5/group), aged 5 weeks, were dosed orally with 0.5 ml 0.25% methyl cellulose solution with or without test compound or ezetimibe (0.0003 to 1 mg/kg). 0.5 to 16 hrs later all of the rats were dosed orally with 0.5 ml […]® containing 5 μCi [^3H]-cholesterol per rat. Five hours later, the animals were euthanized, and liver and blood were collected. Cholesterol counts in liver and plasma were determined, and percent inhibition of cholesterol absorption was calculated.

For `O=C1[C@H](CC[C@H](O)c2ccc(F)cc2)[C@@H](c2ccc(O)cc2)N1c1ccc(F)cc1` [ezetimibe, Ezetimibe], the “inhibition of cholesterol absorption” value is given as greater than 75%.

(Values after US20100035857A1, “ANTI-HYPERCHOLESTEROLEMIC COMPOUNDS” (priority 2006, published 2010).)
